From patent US9751869B2, “LXR modulators” (BRISTOL-MYERS SQUIBB COMPANY, priority 2013, dated 2017)

Biological target: T1, LXRβ (Homo sapiens, UniProt P55055)
T1 construct: Co-transfection expression plasmids, comprising full-length LXRα (pCMX-h LXRα or LXRβ (pCMX-hLXRβ)); expressed in transfected cells; host or cells: CV-1 African green monkey kidney cells, transient transfection with pCMX-hLXRβ
T1 sequence (P55055 1-460): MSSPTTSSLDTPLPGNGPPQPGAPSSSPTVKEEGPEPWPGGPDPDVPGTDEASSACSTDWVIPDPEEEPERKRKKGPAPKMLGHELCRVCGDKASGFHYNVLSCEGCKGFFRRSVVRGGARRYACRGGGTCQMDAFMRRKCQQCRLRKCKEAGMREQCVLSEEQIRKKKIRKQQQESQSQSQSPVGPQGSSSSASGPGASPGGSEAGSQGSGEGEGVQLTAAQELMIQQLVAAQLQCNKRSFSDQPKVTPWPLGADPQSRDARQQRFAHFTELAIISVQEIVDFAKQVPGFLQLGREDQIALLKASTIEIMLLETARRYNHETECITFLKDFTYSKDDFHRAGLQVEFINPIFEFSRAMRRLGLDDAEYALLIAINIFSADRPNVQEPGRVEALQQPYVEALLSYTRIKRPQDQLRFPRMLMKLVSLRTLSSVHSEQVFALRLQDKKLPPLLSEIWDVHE
T1 sequence (P19793 1-462 partner): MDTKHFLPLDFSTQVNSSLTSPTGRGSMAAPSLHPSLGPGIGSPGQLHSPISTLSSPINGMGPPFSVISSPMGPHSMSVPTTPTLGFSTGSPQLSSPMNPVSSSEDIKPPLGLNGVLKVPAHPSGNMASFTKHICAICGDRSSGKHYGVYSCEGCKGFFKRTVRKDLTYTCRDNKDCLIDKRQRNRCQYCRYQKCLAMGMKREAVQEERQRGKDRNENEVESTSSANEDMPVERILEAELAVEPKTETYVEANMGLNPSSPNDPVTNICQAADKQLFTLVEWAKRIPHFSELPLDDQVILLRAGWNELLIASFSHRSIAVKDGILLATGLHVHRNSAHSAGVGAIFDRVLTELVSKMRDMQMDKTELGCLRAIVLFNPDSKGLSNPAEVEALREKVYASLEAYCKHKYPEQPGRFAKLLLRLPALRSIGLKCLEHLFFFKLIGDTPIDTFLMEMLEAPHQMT
Experiment: LXR/LXRE co-transfection assay (luciferase reporter) in CV-1 cells, LXRβ
Assay type: cell-based
Conditions: for EC50: CV-1 cells transfected with pCMX-hLXRβ and LXREx1-Tk-Luciferase, 20 hours incubation, read-out: LXRbeta agonism EC50; for Emax: read-out: LXRbeta % EFFICACY
How it was run: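 Luciferase read-out after 20 h compound treatment at 37 °C of CV-1 cells carrying transfected hLXRβ plus one-copy LXRE reporter, endogenous RXR partnering. Sigmoidal fit of 10-point half-log curves (4 wells each) gave EC50; % efficacy versus maximal response of the propionamide reference agonist.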

[1] = CV-1 cells, relative to maximum response of high control N-(3-((4-fluorophenyl)-(naphthalene-2-sulfonyl)amino)propyl)-2,2-dimethylpropionamide

Row | SMILES | EC50 | Emax [1] | LXRbeta % EFFICACY [1]
1 | CN(C)C(=O)c1cc(-c2ccc(-c3cccc(S(C)(=O)=O)c3)cc2-n2nncc2-c2ccc(OC(F)(F)F)cc2)n(C)n1 [Example 38, N,N,1-trimethyl-5-[3′-(methylsulfonyl)-3-(5-{4-[(trifluoromethyl)oxy]phenyl}-1H-1,2,3-triazol-1-yl)biphenyl-4-yl]-1H-pyrazole-3-carboxamide] | 1130 nM | 60% | –
2 | Cn1nc(C(F)(F)CO)cc1-c1ccc(-c2cccc(S(C)(=O)=O)c2)cc1-n1nncc1-c1ccc2c(c1)OC(F)(F)O2 [Example 35, 2-(5-(3-(5-(2,2-difluorobenzo[d][1,3]dioxol-5-yl)-1H-1,2,3-triazol-1-yl)-3′-(methylsulfonyl)-[1,1′-biphenyl]-4-yl)-1-methyl-1H-pyrazol-3-yl)-2,2-difluoroethanol] | 2230 nM | 87% | –
3 | Cc1nc(-c2ccc3c(c2)OC(F)(F)O3)c(-c2cc(-c3cccc(S(C)(=O)=O)c3)ccc2-n2ccc(CO)n2)o1 [Example 363, (1-(3-(4-(2,2-difluorobenzo[d][1,3]dioxol-5-yl)-2-methyloxazol-5-yl)-3′-(methylsulfonyl)-[1,1′-biphenyl]-4-yl)-1H-pyrazol-3-yl)methanol] | 1520 nM | 22% | –
4 | Cc1nc(-c2ccc3c(c2)OC(F)(F)O3)c(-c2cc(-c3cccc(S(C)(=O)=O)c3)ccc2-n2ccc(C(C)(C)O)n2)o1 [Example 357, 2-(1-(3-(4-(2,2-difluorobenzo[d][1,3]dioxol-5-yl)-2-methyloxazol-5-yl)-3′-(methylsulfonyl)-[1,1′-biphenyl]-4-yl)-1H-pyrazol-3-yl)propan-2-ol] | 392 nM | 41% | –
5 | Cc1nc(-c2cc(-c3cccc(S(C)(=O)=O)c3)ccc2-n2ccc(C(N)=O)n2)c(-c2ccc(OC(F)(F)F)cc2)o1 [Example 416] | 3050 nM | 27% | –
6 | Cc1nc(-c2ccc3c(c2)OC(F)(F)O3)c(-c2cc(-c3cc(F)c(CO)c(S(C)(=O)=O)c3)ccc2-c2cc(CS(=O)(=O)N(C)C)nn2C)o1 [Example 69, 1-(5-(3-(4-(2,2-difluorobenzo[d][1,3]dioxol-5-yl)-2-methyloxazol-5-yl)-3′-fluoro-4′-(hydroxymethyl)-5′-(methylsulfonyl)-[1,1′-biphenyl]-4-yl)-1-methyl-1H-pyrazol-3-yl)-N,N-dimethylmethanesulfonamide] | 160 nM | 24% | –
7 | CCOc1cc(C(F)(F)F)nn1-c1ccc(-c2cccc(S(C)(=O)=O)c2)cc1-c1nc(C)oc1-c1ccc(OC(F)(F)F)cc1 [Example 311, 4-(4-(5-ethoxy-3-(trifluoromethyl)-1H-pyrazol-1-yl)-3′-(methylsulfonyl)biphenyl-3-yl)-2-methyl-5-(4-(trifluoromethoxy)phenyl)oxazole] | 798 nM | 37% | –
8 | Cn1nc(C(F)(F)CO)cc1-c1ccc(-c2cc(F)c(CO)c(S(C)(=O)=O)c2)cc1-n1nncc1-c1ccc(OC(F)(F)F)cc1 [Example 26, 2,2-difluoro-2-(5-(3′-fluoro-4′-(hydroxymethyl)-5′-(methylsulfonyl)-3-(5-(4-(trifluoromethoxy)phenyl)-1H-1,2,3-triazol-1-yl)-[1,1′-biphenyl]-4-yl)-1-methyl-1H-pyrazol-3-yl)ethanol] | 903 nM | 81% | –

Results, then the molecule that gave them:

Row | EC50 | Emax [1] | LXRbeta % EFFICACY [1] | SMILES
9 | 72 nM | 79% | – | CNC(=O)C(F)(F)c1cc(-c2ccc(-c3cc(F)c(CO)c(S(C)(=O)=O)c3)cc2-c2oc(C)nc2-c2ccc(OC(F)F)c(F)c2)n(C)n1 [Example 78, 2-(5-(3-(4-(4-(difluoromethoxy)-3-fluorophenyl)-2-methyloxazol-5-yl)-3′-fluoro-4′-(hydroxymethyl)-5′-(methylsulfonyl)biphenyl-4-yl)-1-methyl-1H-pyrazol-3-yl)-2,2-difluoro-N-methylacetamide]
10 | 30 nM | 28% | – | Cc1nc(-c2ccc(OC(F)(F)F)cc2)c(-c2cc(-c3cc(F)c(CO)c(S(C)(=O)=O)c3)ccc2-n2cc(C#N)c(C3CC3)n2)o1 [Example 446, 3-cyclopropyl-1-(3′-fluoro-4′-(hydroxymethyl)-3-(2-methyl-4-(4-(trifluoromethoxy)phenyl)oxazol-5-yl)-5′-(methylsulfonyl)-[1,1′-biphenyl]-4-yl)-1H-pyrazole-4-carbonitrile]
11 | 126 nM | 61% | – | Cc1nc(-c2ccc3c(c2)OC(F)(F)O3)c(-c2cc(-c3cccc(S(C)(=O)=O)c3)ccc2-c2cc(C(C)(C)C(N)=O)nn2C)o1 [Example 96, 2-(5-(3-(4-(2,2-difluorobenzo[d][1,3]dioxol-5-yl)-2-methyloxazol-5-yl)-3′-(methylsulfonyl)biphenyl-4-yl)-1-methyl-1H-pyrazol-3-yl)-2-methylpropanamide]
12 | 13 nM | 60% | – | Cc1nc(-c2ccc(Cl)cc2Cl)c(-c2cc(-c3cc(F)c(CO)c(S(C)(=O)=O)c3)ccc2-n2cc(Cl)c(C(F)(F)F)n2)o1 [Example 424, (4′-(4-chloro-3-(trifluoromethyl)-1H-pyrazol-1-yl)-3′-(4-(2,4-dichlorophenyl)-2-methyloxazol-5-yl)-3-fluoro-5-(methylsulfonyl)-[1,1′-biphenyl]-4-yl)methanol]
13 | 131 nM | 76% | – | Cc1nc(-c2cc(-c3cccc(S(C)(=O)=O)c3)ccc2-n2ccc(C(F)(F)F)n2)c(-c2ccc(Cl)cc2)o1 [Example 401, 5-(4-chlorophenyl)-2-methyl-4-(3′-(methylsulfonyl)-4-(3-(trifluoromethyl)-1H-pyrazol-1-yl)biphenyl-3-yl)oxazole]
14 | 28 nM | 23% | – | Cc1nc(-c2ccc(OC(F)(F)F)cc2)c(-c2cc(-c3cc(F)c(CO)c(S(C)(=O)=O)c3)ccc2-n2ccc(C(C)(C)C#N)n2)o1 [Example 377, 2-(1-(3′-fluoro-4′-(hydroxymethyl)-3-(2-methyl-4-(4-(trifluoromethoxy)phenyl)oxazol-5-yl)-5′-(methylsulfonyl)-[1,1′-biphenyl]-4-yl)-1H-pyrazol-3-yl)-2-methylpropanenitrile]
15 | 157 nM | – | 49% | Cc1nc(-c2ccc3c(c2)OC(F)(F)O3)c(-c2cc(-c3cc(F)c(CO)c(S(C)(=O)=O)c3)ccc2-c2cc(C(C)OC(N)=O)nn2C)o1 (centres unmarked) [Example 132, 1-(5-(3-(4-(2,2-difluorobenzo[d][1,3]dioxol-5-yl)-2-methyloxazol-5-yl)-3′-fluoro-4′-(hydroxymethyl)-5′-(methylsulfonyl)-[1,1′-biphenyl]-4-yl)-1-methyl-1H-pyrazol-3-yl)ethyl carbamate]
16 | 15 nM | 77% | – | Cc1nc(-c2ccc(OC(F)F)cc2)c(-c2cc(-c3ccc(CO)c(S(C)(=O)=O)c3)ccc2-n2nc(C(F)(F)F)cc2C)o1 [Example 326, (3′-(4-(4-(difluoromethoxy)phenyl)-2-methyloxazol-5-yl)-4′-(5-methyl-3-(trifluoromethyl)-1H-pyrazol-1-yl)-3-(methylsulfonyl)biphenyl-4-yl)methanol]
17 | 48 nM | 82% | – | Cc1nc(-c2ccc3c(c2)OC(F)(F)O3)c(-c2cc(-c3cc(F)c(CO)c(S(C)(=O)=O)c3)ccc2-c2cc(C(C)(C)C#N)nn2C)o1 [Example 97, 2-(5-(3-(4-(2,2-difluorobenzo[d][1,3]dioxol-5-yl)-2-methyloxazol-5-yl)-3′-fluoro-4′-(hydroxymethyl)-5′-(methylsulfonyl)biphenyl-4-yl)-1-methyl-1H-pyrazol-3-yl)-2-methylpropanenitrile]
18 | 91 nM | 98% | – | Cc1cc(C(F)(F)F)nn1-c1ccc(-c2cccc(S(C)(=O)=O)c2)cc1-c1ocnc1-c1ccc(OC(F)(F)F)cc1 [Example 307, 5-{3′-(methylsulfonyl)-4-[5-methyl-3-(trifluoromethyl)-1H-pyrazol-1-yl]biphenyl-3-yl}-4-{4-[(trifluoromethyl)oxy]phenyl}-1,3-oxazole]
19 | 38 nM | 64% | – | Cc1nc(-c2ccc(OC(F)(F)F)cc2)c(-c2cc(-c3cc(F)c(CO)c(S(C)(=O)=O)c3)ccc2-n2cc(C)c(C(F)(F)F)n2)o1 [Example 439, (3-fluoro-4′-(4-methyl-3-(trifluoromethyl)-1H-pyrazol-1-yl)-3′-(2-methyl-4-(4-(trifluoromethoxy)phenyl)oxazol-5-yl)-5-(methylsulfonyl)-[1,1′-biphenyl]-4-yl)methanol]
